Data on 20 compounds can be found in patent US20250296938A1, “Compounds that Interact with the Ras Superfamily for the Treatment of Cancers, Inflammatory Diseases, Rasopathies, and Fibrotic Disease” (SHY Therapeutics, LLC, priority 2018, published 2025).

Holding throughout (assay): Ras GTP binding domain inhibition assay (Cy3-GTP/Cy5-GTP competition)
One assay has as its target T1, KRas G12D mutant (Homo sapiens, UniProt P01116, G12D).
T1 construct: fused on or other part: His tag, used for capture on nickel-coated plates
The following applies: at 20 μM. The gist of the method:
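First, His-tagged protein is coated on nickel wells overnight at 4 °C. Next, compound (20 μM single point or serial dilution) is added for 3 h at room temperature, with or without Sos exchange factor in the last hour. Finally, 100 nM labelled GTP binds for 45 min and retained signal is measured.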

The target of a further assay is Rho-A (Homo sapiens, UniProt P61586). The procedure, abridged:
(§1)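 Compounds tested at 20 μM or in serial dilution for IC50 against nickel-captured His-tagged GTPase, 3 hours at room temperature, with or without His-Sos GEF added for last hour. Fluorescent GTP then added at 100 nM for 45 minutes; wells washed, bound label measured by fluorescence.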

The target in another assay is Rac-1 (Homo sapiens, UniProt P63000). The gist of the method: as §1
Where [1] appears, read: with SOS, read-out: KRas G12D mutant + SOS: % inh.
Where [2] appears, read: without SOS, read-out: KRas G12D mutant: % inh.
[3] abbreviates: with SOS, read-out: Rho-A + SOS: % inh.
Setting [4] is: without SOS, read-out: Rho-A: % inh.
Where [5] appears, read: with SOS, read-out: Rac-1 + SOS: % inh.
[6] abbreviates: without SOS, read-out: Rac-1: % inh.

Read-outs that look alike come from different tables or passages of the source.

As for `O=C(NC1CCCC1)c1nc(-c2ccccn2)nc(O)c1O` [drawing 947], the inhibition at 20 µM on KRas G12D mutant (setting [1]) fell in the range of 1 to 25%; at KRas G12D mutant (setting [2]) it was 51 to 75%; on Rho-A (setting [3]), 51 to 75%; on Rho-A (setting [4]), 51 to 75%; at Rac-1 (setting [5]), 51 to 75%; at Rac-1 (setting [6]), 51 to 75%.
Regarding `COCCN(C)C(=O)c1nc(-c2ccccn2)nc(O)c1O` [drawing 945], the inhibition at 20 µM lay in the range of 1 to 25% on KRas G12D mutant (setting [1]); 1 to 25% at KRas G12D mutant (setting [2]); 26 to 50% at Rho-A (setting [3]); 26 to 50% at Rho-A (setting [4]); 51 to 75% at Rac-1 (setting [5]); 51 to 75% on Rac-1 (setting [6]).
Take `Cn1ccc(-c2sc3nc(-c4nccn4C)nc(NCC4CCOC4)c3c2-c2ccccc2)n1` (stereo not drawn) [drawing 996]: the inhibition at 20 µM was 1 to 25% at KRas G12D mutant (setting [1]); 26 to 50% at KRas G12D mutant (setting [2]); 0% on Rho-A (setting [3]); 26 to 50% on Rho-A (setting [4]); 26 to 50% at Rac-1 (setting [5]); 1 to 25% at Rac-1 (setting [6]).
Take `COCCNc1nc(-c2nccn2C)nc2sc(-c3cccc(OC)c3Cl)c(-c3ccccc3)c12` [drawing 1007]: the inhibition at 20 µM at KRas G12D mutant (setting [1]) is 76 to 100%; at KRas G12D mutant (setting [2]), 1 to 25%; on Rho-A (setting [3]), 51 to 75%; at Rho-A (setting [4]) it was 51 to 75%; at Rac-1 (setting [5]), 26 to 50%; on Rac-1 (setting [6]), 51 to 75%.
Turning to `CO[C@H]1C[C@@H](Nc2nc(-c3nccn3C)nc3sc(-c4cnn(C)c4)c(-c4ccccc4)c23)C1` [drawing 1027], the inhibition at 20 µM was 76 to 100% on KRas G12D mutant (setting [1]); 51 to 75% at KRas G12D mutant (setting [2]); 76 to 100% on Rho-A (setting [3]); 76 to 100% at Rho-A (setting [4]); 76 to 100% at Rac-1 (setting [5]); 76 to 100% on Rac-1 (setting [6]).
As to `COCCc1ccc(Oc2nc(-c3ccccn3)nc(O)c2OC)cc1` [drawing 949], the inhibition at 20 µM on KRas G12D mutant (setting [1]) lay in the range of 26 to 50%; on KRas G12D mutant (setting [2]) it was 51 to 75%; at Rho-A (setting [3]), 76 to 100%; on Rho-A (setting [4]), 76 to 100%; on Rac-1 (setting [5]) it was 76 to 100%; at Rac-1 (setting [6]) it was 51 to 75%.
`COCCn1ccnc1-c1nc(O)c2scc(-c3ccccn3)c2n1` [drawing 987]: the inhibition at 20 µM at KRas G12D mutant (setting [1]) is 51 to 75%; at KRas G12D mutant (setting [2]) it was 76 to 100%; on Rho-A (setting [3]), 51 to 75%; on Rho-A (setting [4]) it was 51 to 75%; at Rac-1 (setting [5]) it was 76 to 100%; on Rac-1 (setting [6]) it was 76 to 100%.
For `Oc1nc(-c2nccn2Cc2ccccn2)nc2c(-c3ccccn3)csc12` [drawing 986], the inhibition at 20 µM on KRas G12D mutant (setting [1]) was 51 to 75%; at KRas G12D mutant (setting [2]), 76 to 100%; at Rho-A (setting [3]) it was 51 to 75%; on Rho-A (setting [4]), 51 to 75%; at Rac-1 (setting [5]), 51 to 75%; at Rac-1 (setting [6]), 76 to 100%.
For the compound `CC(C)CN(C)C(=O)c1nc(-c2ccccn2)nc(O)c1O` [drawing 933], the inhibition at 20 µM was in the range of 26 to 50% at KRas G12D mutant (setting [1]); 26 to 50% on KRas G12D mutant (setting [2]); 51 to 75% on Rho-A (setting [3]); 26 to 50% at Rho-A (setting [4]); 26 to 50% at Rac-1 (setting [5]); 51 to 75% on Rac-1 (setting [6]).
In the case of `COCC(C)Nc1nc(-c2nccn2C)nc2sc(-c3ccccc3Cl)c(-c3cscn3)c12` (stereo not drawn) [drawing 989], the inhibition at 20 µM lay within 51 to 75% on KRas G12D mutant (setting [1]); 51 to 75% on KRas G12D mutant (setting [2]); 26 to 50% on Rho-A (setting [3]); 26 to 50% on Rho-A (setting [4]); 26 to 50% at Rac-1 (setting [5]); 26 to 50% at Rac-1 (setting [6]).
Take `CO[C@H]1CC[C@@H](Nc2nc(-c3nccn3C)nc3sc(-c4ccn(C)n4)c(C)c23)C1` [drawing 1050]: the inhibition at 20 µM on KRas G12D mutant (setting [1]) lay within 51 to 75%; at KRas G12D mutant (setting [2]) it was 26 to 50%; on Rho-A (setting [3]) it was 76 to 100%; at Rho-A (setting [4]), 76 to 100%; on Rac-1 (setting [5]), 76 to 100%; at Rac-1 (setting [6]) it was 76 to 100%.
For `COc1cccc(-c2sc3nc(-c4nccn4C)nc(NC4CCC(OC)C4)c3c2C)c1F` (stereo not drawn) [drawing 1028], the inhibition at 20 µM on KRas G12D mutant (setting [1]) fell in the range of 51 to 75%; on KRas G12D mutant (setting [2]), 76 to 100%; on Rho-A (setting [3]), 76 to 100%; at Rho-A (setting [4]), 76 to 100%; on Rac-1 (setting [5]) it was 51 to 75%; on Rac-1 (setting [6]), 51 to 75%.
As for `COC1CCN(c2nc(-c3nccn3C)nc3sc(-c4ccccc4Cl)c(-c4cscn4)c23)C1` (stereo not drawn) [drawing 984], the inhibition at 20 µM at KRas G12D mutant (setting [1]) was 51 to 75%; on KRas G12D mutant (setting [2]), 51 to 75%; on Rho-A (setting [3]), 51 to 75%; at Rho-A (setting [4]), 0%; at Rac-1 (setting [5]), 76 to 100%; on Rac-1 (setting [6]), 51 to 75%.
`COCCn1cc(-c2sc3nc(-c4nccn4C)nc(N4CCC(OC)C4)c3c2-c2ccccc2)cn1` (stereo not drawn) [drawing 976]: the inhibition at 20 µM on KRas G12D mutant (setting [1]) lay within 51 to 75%; at KRas G12D mutant (setting [2]) it was 51 to 75%; at Rho-A (setting [3]), 26 to 50%; at Rho-A (setting [4]) it was 26 to 50%; at Rac-1 (setting [5]), 51 to 75%; at Rac-1 (setting [6]), 51 to 75%.
Take `Cc1cnc(-c2nc(O)c3scc(-c4ccccn4)c3n2)n1C` [drawing 943]: the inhibition at 20 µM lay in the range of 1 to 25% at KRas G12D mutant (setting [1]); 51 to 75% on KRas G12D mutant (setting [2]); 51 to 75% on Rho-A (setting [3]); 51 to 75% at Rho-A (setting [4]); 51 to 75% at Rac-1 (setting [5]); 1 to 25% on Rac-1 (setting [6]).
With `COCCNC(=O)c1sc2nc(-c3nccn3C)nc(N[C@@H]3CC[C@H](OC)C3)c2c1-c1ccccc1` [drawing 1060], the inhibition at 20 µM on KRas G12D mutant (setting [1]), on KRas G12D mutant (setting [2]), at Rho-A (setting [3]), at Rho-A (setting [4]), on Rac-1 (setting [5]) and at Rac-1 (setting [6]) was 76 to 100% in each case.
For the compound `Cc1c(-c2ccn(C)n2)sc2nc(-c3nccn3C)nc(NCCCC(=O)N(C)C)c12` [drawing 1052], the inhibition at 20 µM lay within 76 to 100% at KRas G12D mutant (setting [1]); 51 to 75% at KRas G12D mutant (setting [2]); 76 to 100% on Rho-A (setting [3]); 76 to 100% on Rho-A (setting [4]); 76 to 100% on Rac-1 (setting [5]); 76 to 100% on Rac-1 (setting [6]).
For the compound `CO[C@H]1CC[C@@H](Nc2nc(-c3nccn3C)nc(C(=O)N3CCc4c(O)cccc4C3)c2C)C1` [drawing 1036], the inhibition at 20 µM at KRas G12D mutant (setting [1]) was 26 to 50%; at KRas G12D mutant (setting [2]) it was 26 to 50%; on Rho-A (setting [3]) it was 76 to 100%; at Rho-A (setting [4]) it was 51 to 75%; at Rac-1 (setting [5]), 51 to 75%; on Rac-1 (setting [6]), 51 to 75%.
As to `COCCNc1nc(-c2nccn2C)nc2sc(-c3cc(OC)ccc3Cl)c(-c3ccc(OC)cc3)c12` [drawing 1012], the inhibition at 20 µM on KRas G12D mutant (setting [1]) was in the range of 26 to 50%; at KRas G12D mutant (setting [2]) it was 1 to 25%; on Rho-A (setting [3]), 1 to 25%; at Rho-A (setting [4]) it was 26 to 50%; at Rac-1 (setting [5]), 1 to 25%; at Rac-1 (setting [6]), 1 to 25%.
For `O=C(c1nc(-c2ccccn2)nc(O)c1O)N1CCOCC1` [drawing 935], the inhibition at 20 µM was 26 to 50% on KRas G12D mutant (setting [1]); 26 to 50% on KRas G12D mutant (setting [2]); 26 to 50% on Rho-A (setting [3]); 26 to 50% at Rho-A (setting [4]); 26 to 50% at Rac-1 (setting [5]); 51 to 75% on Rac-1 (setting [6]).
